According to US9045440B2, “Desazadesferrothiocin and desazadesferrothiocin polyether analogues as metal chelation agents” (FerroKin Biosciences, Inc., priority 2010, dated 2015):
Where two headings read alike, the source gives them in different places. Each block holds one molecule with its values, some of them ahead of it.

How the values were obtained:
[1] = mode of iron excretion; cited from earlier work
[2] = cited from earlier work
[3] = rats, 300 μmol/kg intraperitoneally immediately after uranyl acetate; cited from earlier work
[4] = pH 7.4
Experimental: Measurements were taken via LC/MS.
To each 5 μL aliquot of stock solution of each sample was added 500 μL of PBS pH 7.4 and 500 μL of octanol and a stir bar. […] Stir bars were removed and samples centrifuged at 15,000 g for 15 minutes to separate the phases, and pipette and syringe were used to remove the upper (octanol) and lower (buffer) phases to empty tubes, respectively. Aliquots of 5 μL were taken from upper phases and diluted with 495 μL of methanol. Aliquots of 50 μL were taken from lower phases and diluted with 450 μL of methanol. Reference solutions of progesterone or metopolol were also prepared and tested as standards.

[5] = ratio of ICE in one species (monkey) to the other (rat)

SMILES: COCCOCCOc1ccc(C2=N[C@@](C)(C(=O)O)CS2)c(O)c1 [Example A, (S)-2-(2-hydroxy-4-(2-(2-methoxyethoxy)ethoxy)phenyl)-4-methyl-4,5-dihydrothiazole-4-carboxylic acid]
Rodent ICE [urine/bile] [1]: [97/3] | ICE Ratio ([2]; primate (capsule) to rodent): 1.0 | ICE Ratio ([2]; primate (sodium salt) to rodent): 1.1 | Primate ICE [urine/bile] ([2]; given as capsule): [93/7] | Primate ICE [urine/bile] ([2]; given as sodium salt): [83/17]

SMILES: COCCOCCOCCOc1ccc(C2=N[C@@](C)(C(=O)O)CS2)c(O)c1 [Example B, (S)-2-(2-hydroxy-4-(2-(2-(2-methoxyethoxy)ethoxy)ethoxy)phenyl)-4-methyl-4,5-dihydrothiazole-4-carboxylic acid]
Rodent ICE [urine/bile] [1]: [90/10] | Primate ICE [urine/bile] ([2]; mode of iron excretion): [96/4] | ICE Ratio [2, 5]: 4.6 | Uranium Excretion [urine/bile] [3]: [35/65]

SMILES: COCCOCCOCCOCCOc1ccc(C2=N[C@@](C)(C(=O)O)CS2)c(O)c1 [Example C, (S)-2-(4-(2,5,8,11-tetraoxatridecan-13-yloxy)-2-hydroxyphenyl)-4-methyl-4,5-dihydrothiazole-4-carboxylic acid]
Rodent ICE [urine/bile] [1]: [99/1] | Primate ICE [urine/bile] ([2]; mode of iron excretion): [52/48] | ICE Ratio [2, 5]: 0.8

SMILES: COCCOCCOc1cccc(C2=N[C@@](C)(C(=O)O)CS2)c1O [Example D, (S)-2-(2-hydroxy-3-(2-(2-methoxyethoxy)ethoxy)phenyl)-4-methyl-4,5-dihydrothiazole-4-carboxylic acid]
Rodent ICE [urine/bile] [1]: [99/1]

SMILES: COCCOCCOCCOc1cccc(C2=N[C@@](C)(C(=O)O)CS2)c1O [Example E, (S)-2-(2-hydroxy-3-(2-(2-(2-methoxyethoxy)ethoxy)ethoxy)phenyl)-4-methyl-4,5-dihydrothiazole-4-carboxylic acid]
Rodent ICE [urine/bile] [1]: [95/5] | Primate ICE [urine/bile] ([2]; mode of iron excretion): [95/5] | ICE Ratio [2, 5]: 2.2

SMILES: COCCOCCOCCOCCOc1cccc(C2=N[C@@](C)(C(=O)O)CS2)c1O [Example F, (S)-2-(3-(2,5,8,11-tetraoxatridecan-13-yloxy)-2-hydroxyphenyl)-4-methyl-4,5-dihydrothiazole-4-carboxylic acid]
Rodent ICE [urine/bile] [1]: [98/2] | Primate ICE [urine/bile] ([2]; mode of iron excretion): [25/75] | ICE Ratio [2, 5]: 0.8

LogD [4]: −0.27
SMILES: COCCc1ccc(OCC(O)CNC(C)C)cc1 (centres unmarked) [metopolol]
